Laboratory results: PMC9502896 (Nutrients, 2022)
Where “and” joins values, the source holds several entries; their conditions need not be identical. Equal values may be shown once. Read-outs that look alike come from different tables or passages of the source. Blank lines part the entries; values can stand above or below the molecule they belong to.

What was measured:
hMAO-B = target: T1, hMAO-B (Homo sapiens, UniProt P27338); assay: In vitro hMAO inhibitory assay (luminometric), MAO-B; type: biochemical; details: 16 µM substrate, 0.5 µg enzyme, 25 °C, 1 h; read-out: hMAO-B IC50 (Mean ± SD)
T1 construct: purchased Sigma-Aldrich
T1 sequence (P27338 1-520): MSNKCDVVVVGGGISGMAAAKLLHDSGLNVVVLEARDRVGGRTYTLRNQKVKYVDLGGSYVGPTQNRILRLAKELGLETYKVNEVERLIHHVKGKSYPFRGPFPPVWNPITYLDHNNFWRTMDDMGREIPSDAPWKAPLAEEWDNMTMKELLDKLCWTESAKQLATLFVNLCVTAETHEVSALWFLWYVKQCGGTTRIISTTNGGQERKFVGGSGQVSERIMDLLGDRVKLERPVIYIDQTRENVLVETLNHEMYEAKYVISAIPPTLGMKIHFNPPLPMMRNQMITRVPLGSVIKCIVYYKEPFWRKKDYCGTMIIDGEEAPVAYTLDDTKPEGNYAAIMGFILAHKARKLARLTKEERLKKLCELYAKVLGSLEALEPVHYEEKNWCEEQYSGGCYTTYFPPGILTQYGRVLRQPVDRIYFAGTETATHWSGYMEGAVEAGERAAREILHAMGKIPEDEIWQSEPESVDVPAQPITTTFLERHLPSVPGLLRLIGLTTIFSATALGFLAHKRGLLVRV
Procedure: (§1) The inhibitory potential of the P. lobata-derived phytochemicals against MAO was evaluated through the luminometric method. Various doses of phytoestrogens in 0.1 M HEPES buffer (pH 7.5) with 5% 1,2,3-propanetriol for MAO-A and 5% 1,2,3-propanetriol and 10% dimethyl sulfoxide for MAO-B were mixed with the substrate (160 µM for MAO-A and 16 µM for MAO-B) and 0.5 µg of the enzyme and incubated at 25 °C. After 1 h incubation, reconstituted luciferin-detection reagent was added to the reaction mixture and incubated at 25 °C for 20 min. After that, luminescent signals were monitored using a microplate reader (Biotek, Winooski, VT, USA).
(§2) In addition, since factors such as organic solvents, metal ions (such as Cu^2+, Cd^2+, and Al^3+), pH, and temperature affect MAO activity, the assay was conducted in a well-controlled laboratory environment. The optimal conditions for the enzymatic reaction, including reaction time, temperature, pH, and the concentrations of the enzyme and substrate, were established based on the previous study. All the test samples were diluted in a reaction buffer containing 10% or less DMSO, and the solvent-control group was tested together for each assay to minimize false-positive/false-negative effects.

β-secretase = test system: β-secretase; design: method as in PMID 29597336; details: cited from earlier work
hMAO-A [1] = target: T2, hMAO-A (Homo sapiens, UniProt P21397); assay: Kinetic assay for hMAO-A (Lineweaver-Burk and secondary plots); type: biochemical
T2 construct: purchased Sigma-Aldrich
T2 sequence (P21397 1-527): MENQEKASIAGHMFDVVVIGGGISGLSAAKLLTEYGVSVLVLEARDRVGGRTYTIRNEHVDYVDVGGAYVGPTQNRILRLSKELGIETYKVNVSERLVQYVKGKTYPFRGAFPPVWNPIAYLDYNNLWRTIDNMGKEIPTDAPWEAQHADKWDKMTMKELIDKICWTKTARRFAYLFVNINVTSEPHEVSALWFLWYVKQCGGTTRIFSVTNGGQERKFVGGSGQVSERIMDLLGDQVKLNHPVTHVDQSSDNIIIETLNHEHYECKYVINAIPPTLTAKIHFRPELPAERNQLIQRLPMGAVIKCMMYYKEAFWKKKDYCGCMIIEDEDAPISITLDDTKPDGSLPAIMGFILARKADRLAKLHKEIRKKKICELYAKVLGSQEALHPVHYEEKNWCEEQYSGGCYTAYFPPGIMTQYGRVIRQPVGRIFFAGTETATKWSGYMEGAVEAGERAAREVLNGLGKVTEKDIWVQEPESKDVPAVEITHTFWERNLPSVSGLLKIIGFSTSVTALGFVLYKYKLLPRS
Procedure: The experimental method was the same as that used for the hMAO inhibitory assay; 0.5 µg of enzyme, 40–160 µM substrate and 0, 2.5, 10, and 20 µM coumestrol were used. A Lineweaver–Burk plot (LB plot) was generated using SigmaPlot 12.0 based on the results of the kinetic assay and secondary plots of the LB plot (LB-2nd plot) were generated using the exploratory EK macro module (Table S1).
The equation for the LB plot is as follows:(1) […]

mouse astrocytes = test system: mouse astrocytes; design: method as in PMID 21708076; details: nanomolar concentration; Aβ-induced cytotoxicity and inflammatory cytokine levels; cited from earlier work
Aβ25–35 = target: T3, Aβ25–35 (Homo sapiens, UniProt P05067); assay: Self Aβ25–35 aggregation assay (thioflavin-T fluorescence); type: biochemical; details: for decrease of Aβ25–35 self-aggregation compared to control: 100 μM compound, 24 h of incubation
T3 construct: amyloid β peptide 25–35 (Aβ25–35); purchased Sigma-Aldrich
Procedure: The Aβ25–35 self-aggregation assay was performed following the method described by Naldi et al.. First, peptide was pretreated with HFIP for 1 day at 22 °C to obtain non-amyloidogenic conformation. […] After incubation, the reaction mixture was supplemented with 0.025 mM thioflavin-T in 50 mM glycine–NaOH buffer (pH 8.5). The fluorescence emission was monitored at 490 nm with excitation at 446 nm using the Gemini XPS (Molecular Devices, Sunnyvale, CA, USA).

hMAO-A [2] = target: T2, hMAO-A; assay: In vitro hMAO inhibitory assay (luminometric), MAO-A; type: biochemical
Procedure: as §1, §2

MAO-A = details: cited from earlier work
MAO-B = details: cited from earlier work
[3] = substrate 40 μM, coumestrol 2.5 μM
[4] = substrate 40 μM, coumestrol 10 μM
[5] = substrate 40 μM, coumestrol 20 μM
[6] = substrate 80 μM, coumestrol 2.5 μM
[7] = substrate 80 μM, coumestrol 10 μM
[8] = substrate 80 μM, coumestrol 20 μM
[9] = substrate 160 μM, coumestrol 2.5 μM
[10] = substrate 160 μM, coumestrol 10 μM
[11] = substrate 160 μM, coumestrol 20 μM
[12] = Screening active compound, 100 μM
[13] = 160 µM substrate, 0.5 µg enzyme, 25 °C, 1 h, read-out: hMAO-A IC50 (Mean ± SD)

SMILES: CC(C)=CCc1cc2c(cc1O)oc(=O)c1c3ccc(O)cc3oc21 [psoralidin]
inhibitory effect against MAO-A (MAO-A): did not show a significant inhibitory effect
inhibitory effect against MAO-B (MAO-B): did not show a significant inhibitory effect

SMILES: C[C@@H]1O[C@@H](OC[C@H]2O[C@@H](Oc3c(-c4ccc(O)c(O)c4)oc4cc(O)cc(O)c4c3=O)[C@H](O)[C@@H](O)[C@@H]2O)[C@H](O)[C@H](O)[C@H]1O [Rutin]
IC50 (hMAO-B): > 400 µM
decrease of Aβ25–35 self-aggregation compared to control (Aβ25–35): 49.31%
Fluorescence (Emission = 490 nm / Excitation = 446 nm), replicates 1-3 (Aβ25–35; [12]): 556.703 and 574.097 and 523.388
IC50 (hMAO-A [2]): 387 ± 4.63 µM
inhibitory activity against MAO-A (hMAO-A [2]): weak MAO-A inhibitory activity

SMILES: COc1cc(/C=C/C(=O)CC(=O)/C=C/c2ccc(O)c(OC)c2)ccc1O [Curcumin, curcumin, reference compound]
Fluorescence (Emission = 490 nm / Excitation = 446 nm), replicates 1-3 (Aβ25–35; Dose-dependent curves, 5 μM): 714.733 and 699.957 and 732.987
Fluorescence (Emission = 490 nm / Excitation = 446 nm), replicates 1-3 (Aβ25–35; Dose-dependent curves, 10 μM): 659.3354 and 647.8281 and 645.7345
Fluorescence (Emission = 490 nm / Excitation = 446 nm), replicates 1-3 (Aβ25–35; Dose-dependent curves, 20 μM): 508.323 and 494.704 and 529.05
Fluorescence (Emission = 490 nm / Excitation = 446 nm), replicates 1-3 (Aβ25–35; Screening active compound, 20 μM): 446.557 and 456.907 and 436.435

SMILES: CC1OC(OCC2OC(Oc3c(-c4ccc(O)c(O)c4)oc4cc(O)cc(O)c4c3=O)C(O)C(O)C2O)C(O)C(O)C1O (centres unmarked) [Quercetin-3-O-robinobioside]
IC50 (hMAO-B): > 400 µM
IC50 (hMAO-A [2]): > 400 µM

SMILES: COc1c(CC=C(C)C)c(O)cc2oc(=O)c3c4ccc(O)cc4oc3c12 [glycyrol]
IC50 (MAO-A; read-out: activity against MAO-A (no activity below)): > 40 µM
IC50 (MAO-B; read-out: IC50 against MAO-B): 29.5 µM

SMILES: O=c1c(-c2ccc(O)cc2)coc2cc(O[C@@H]3O[C@H](CO)[C@@H](O)[C@H](O)[C@H]3O)ccc12 [Daidzin]
IC50 (hMAO-B): > 400 µM
IC50 (hMAO-A [2]): > 400 µM

Continued, in another order:

IC50 (hMAO-B): 77.8 ± 2.1 µM
Inhibition Mode (hMAO-A [1]; 0.5 µg MAO-A, 40–160 µM substrate, 25 °C): Competitive
Inhibition Mode (hMAO-A [1]; 0.5 µg MAO-A, 40–160 µM substrate, 25 °C, listed as coumestrol): competitive inhibitor
Ki (hMAO-A [1]; 0.5 µg MAO-A, 40–160 µM substrate, 25 °C, secondary plots, read-out: Inhibition Constant (Ki)): 1.32 µM
1/V Mean (hMAO-A [1]; [3]): 0.000734 1/(RLU/60min)
RLU Mean (hMAO-A [1]; [3]): 81783.67 RLU
1/V Mean (hMAO-A [1]; [4]): 0.001642 1/(RLU/60min)
RLU Mean (hMAO-A [1]; [4]): 36716 RLU
1/V Mean (hMAO-A [1]; [5]): 0.002945 1/(RLU/60min)
RLU Mean (hMAO-A [1]; [5]): 20374 RLU
1/V Mean (hMAO-A [1]; [6]): 0.000475 1/(RLU/60min)
RLU Mean (hMAO-A [1]; [6]): 126374 RLU
1/V Mean (hMAO-A [1]; [7]): 0.000938 1/(RLU/60min)
RLU Mean (hMAO-A [1]; [7]): 64010.67 RLU
1/V Mean (hMAO-A [1]; [8]): 0.001597 1/(RLU/60min)
RLU Mean (hMAO-A [1]; [8]): 37649 RLU
1/V Mean (hMAO-A [1]; [9]): 0.000261 1/(RLU/60min)
RLU Mean (hMAO-A [1]; [9]): 229959.3 RLU
1/V Mean (hMAO-A [1]; [10]): 0.000495 1/(RLU/60min)
RLU Mean (hMAO-A [1]; [10]): 121308.7 RLU
1/V Mean (hMAO-A [1]; [11]): 0.000797 1/(RLU/60min)
RLU Mean (hMAO-A [1]; [11]): 75572 RLU
decrease of Aβ25–35 self-aggregation compared to control (Aβ25–35): 76.14%
Fluorescence (Emission = 490 nm / Excitation = 446 nm), replicates 1-3 (Aβ25–35; Dose-dependent curves, 5 μM): 874.9012 and 872.4322 and 899.9266
Fluorescence (Emission = 490 nm / Excitation = 446 nm), replicates 1-3 (Aβ25–35; Dose-dependent curves, 10 μM): 820.955 and 835.446 and 846.767
Fluorescence (Emission = 490 nm / Excitation = 446 nm), replicates 1-3 (Aβ25–35; Dose-dependent curves, 20 μM): 725.8814 and 709.3678 and 704.8239
Fluorescence (Emission = 490 nm / Excitation = 446 nm), replicates 1-3 (Aβ25–35; Dose-dependent curves, 50 μM): 578.864 and 549.001 and 576.214
Fluorescence (Emission = 490 nm / Excitation = 446 nm), replicates 1-3 (Aβ25–35; Dose-dependent curves, 100 μM): 484.285 and 460.697 and 486.519
Fluorescence (Emission = 490 nm / Excitation = 446 nm), replicates 1-3 (Aβ25–35; [12]): 420.995 and 408.908 and 418.89
IC50 (Aβ25–35; thioflavin-T assay, read-out: IC50 for inhibition of Aβ25–35 self-aggregation): 37.4 ± 1.7 µM
IC50 (hMAO-A [2]; [13]): 1.99 ± 0.68 µM
SMILES: O=c1oc2cc(O)ccc2c2oc3cc(O)ccc3c12 [Coumestrol]
in vitro inhibitory effect against β-secretase (β-secretase): in vitro inhibitory effect
neuroprotective effects in mouse astrocytes (mouse astrocytes): neuroprotective effects

decrease of Aβ25–35 self-aggregation compared to control (Aβ25–35): 35.54%
Fluorescence (Emission = 490 nm / Excitation = 446 nm), replicates 1-3 (Aβ25–35; [12]): 752.714 and 744.841 and 739.542
SMILES: O=c1c(-c2ccc(O)cc2)coc2cc(O)ccc12 [Daidzein]

IC50 (hMAO-B): > 400 µM
IC50 (hMAO-A [2]; [13]): > 400 µM
SMILES: O=c1c(-c2ccc(O)cc2)coc2cc(O[C@@H]3O[C@H](CO)[C@@H](O)[C@H](O)[C@H]3O)cc(O)c12 [Genistin]

IC50 (hMAO-B): > 400 µM
IC50 (hMAO-A [2]; [13]): > 400 µM
SMILES: CC1OC(OCC2OC(Oc3c(-c4ccc(O)cc4)oc4cc(OC5OC(C)C(O)C(O)C5O)cc(O)c4c3=O)C(O)C(O)C2O)C(O)C(O)C1O (centres unmarked) [Robinin, kaempferol 3-O-robinoside-7-O-rhamnoside]

IC50 (hMAO-B): > 400 µM
IC50 (hMAO-A [2]; [13]): > 400 µM
SMILES: CC1OC(OCC2OC(Oc3c(-c4ccc(O)cc4)oc4cc(O)cc(O)c4c3=O)C(O)C(O)C2O)C(O)C(O)C1O (centres unmarked) [Nicotiflorine]

decrease of Aβ25–35 self-aggregation compared to control (Aβ25–35): 34.90%
Fluorescence (Emission = 490 nm / Excitation = 446 nm), replicates 1-3 (Aβ25–35; [12]): 656.961 and 678.75 and 636.556
SMILES: O=c1c(-c2ccc(O)cc2)coc2cc(O)cc(O)c12 [Genistein]

IC50 (hMAO-B): > 400 µM
IC50 (hMAO-A [2]; [13]): > 400 µM
SMILES: CC1OC(OCC2OC(Oc3c(-c4ccc(O)cc4)oc4cc(O)cc(O)c4c3=O)C(O)C(O)C2O)C(O)C(O)C1O (centres unmarked) [Kaempferol-3-O-robinobioside]
